Experiments:
CPT1α = CPT1α protein level by Western blotting in HepG2; type: cell-based, human; conditions: 1 μM, 24 hours, HepG2, Western blotting (FIG. 6A)
From the text: (§1) Carnitine palmitoyltransferase (CPT1α) is a rate-limiting enzyme of fatty acid oxidation. When the body or tissues are lacking in energy, CPT1α catalyzes the entry of fatty acids into mitochondria for […], and at the same time, CPT1α is also involved in the regulation of fatty acid-induced insulin resistance and inflammation. Protein kinase B/glycogen synthase kinase 3β (AKT/GSK3β) signaling pathway and insulin receptor substrate 1 (IRS-1) are key signaling pathways that regulate glucose metabolism in response to insulin signal. Therefore, by determining the effects of compounds on the CPT1α protein level and the AKT, GSK3β and IRS-1 protein phosphorylation levels, it is possible to evaluate the regulatory effects of the compounds on glycolipid metabolism.
(§2) After human liver cancer cells HepG2 were incubated with the compound of the present application or the control drug at 1 μM for 24 hours, the CPT1α protein level and the AKT, GSK3β and IRS-1 phosphorylated protein levels in the cells were determined by Western blotting; after gray-scale scanning by using Image J15.0.1, normalization was performed by using β-tubulin protein level as internal control, and the quantitative analysis results were shown in FIG. 6.

PPARγ = PPARγ mRNA expression by real-time quantitative PCR in HepG2; type: cell-based, human; conditions: 1 μM, 6 hours, HepG2 (FIG. 5B)
From the text: (§3) Peroxisome proliferation factor activated receptor (PPAR) is an important nuclear receptor that regulates glycolipid metabolism, including three subtypes: α, β/δ and γ. Peroxisome proliferator-activated receptor γ coactivator 1α (PGC-1α) is its auxiliary transcriptional activator. Acyl-CoA oxidase 1 (ACOX1) is the first rate-limiting enzyme for fatty acid β oxidation. Fatty acid binding protein 1 (FABP1) is highly expressed in liver, and can bind fatty acid, heme and other molecules to reduce their toxicity and damage. Up-regulating the expression level of these genes helps to improve the body's metabolism, and their agonists are an important class of anti-metabolic drugs. After the compound of the present application (1 μM) and the control drug gemfibrozil (1 μM) were incubated with human liver cancer cells HepG2 for 6 hours, real-time fluorescent quantitative PCR method was used to determine the relative expression of mRNA of related genes in the cells.
(§4) The company which synthesized the primers was Suzhou Hongxun Biotechnology Co., Ltd. Tranzol reagent (Tranzol total RNA extraction reagent, TransGen Biotech) was used to extract total RNA from tissues. 5× All-In-One RT MasterMix reverse transcription kit (Abcam, USA) and real-time quantitative PCR Master Mix (Aidlab Biotechnologies Co., Ltd) were used. Bio-Rad CFX Connect™ Real-Time PCR Detection System for qPCR was used, and 2^−ΔΔCT method was used for data analysis. The expression level of mRNA in the normal control group was set to 1, and the relative expression level of mRNA in the administration group was calculated, so as to confirm whether the active compound affected the PPAR pathway, thereby further regulating lipid metabolism.

phosphorylated IRS-1 = assay: Phosphorylated IRS-1 level by Western blotting in HepG2; type: cell-based, human; conditions: 1 μM, 24 hours, HepG2, Western blotting (FIG. 6C)
From the text: as §1, §2

PGC1α = PGC1α mRNA expression by real-time quantitative PCR in HepG2; type: cell-based, human; conditions: 1 μM, 6 hours, HepG2 (FIG. 5C)
From the text: as §3, §4

ACOX1 = ACOX1 mRNA expression by real-time quantitative PCR in HepG2; type: cell-based, human; conditions: 1 μM, 6 hours, HepG2 (FIG. 5D)
From the text: as §3, §4

[1] = system: antioxidant response element (ARE); assay: ARE luciferase reporter gene activity in HepG2 cells; type: cell-based, human; conditions: 50 μM, HepG2 stably transfected (FIG. 4)
Method: (§5) NF-κB was the most important inflammatory signal pathway. SW480 human colon cancer cells stably transfected with a luciferase reporter gene driven by NF-κB were used to determine the effects of the compound of the present application and the control drug gemfibrozil on NF-κB transcriptional activity, which comprised the following steps. • (1) Cells stably transfected with NF-κB Luc were cultivated to exponential growth, inoculated at a culture medium concentration of 1×10^5/[…] in a 24-well plate, and cultured for 24 hours, the medium was discarded, and the test compound or gemfibrozil formulated with serum-free medium at 50 μM were added to the 24-well plate and incubation was continued for 6 hours. After washing once with 200 μL of PBS, 100 μL of reporter gene cell lysis buffer was added, the cells were lysed on ice for 10 minutes, and the cell lysate was collected by pipetting. • (2) After centrifugation was performed at 8000 rpm and 4° C. for 10 min, the supernatant was pipetted for fluorescence assay. • (3) The measurement gap time of chemiluminescence analyzer was set to 2 s and the measurement time was set to 10 s. Automatic sample injection was adopted, 50 μL of luciferase assay reagent was added to each well. The reporter gene cell lysis buffer was used as a blank control. • (4) After centrifugation, the supernatant was taken, and the BCA method was used to determine the protein concentration so as to normalize the reporter gene results.
In this experimental example, the luciferase activity in HepG2 human liver cancer cells stably transfected with a luciferase reporter gene driven by antioxidant response element (ARE) was determined to evaluate the regulatory effects of the compound of the present application and gemfibrozil on the transcriptional activity of transcription factor Nrf2 and the cellular oxidative stress response signals, in which the operation process of the reporter gene assay was the same as that of Experimental Example 2.2.

[2] = system: RAW264.7 mouse macrophages; assay: Determination of NO generation induced by LPS; type: cell-based; conditions: 10 μM, 1 μg/mL LPS, 24 hours, RAW264.7 (FIG. 2)
Method: The results are expressed as the multiple of the NO content in the cell culture supernatant of the administration group (10 μM) as compared with that in the cell culture supernatant of the control group (DMSO group), in which compared with the control group, *P<0.05, **P<0.01, ***P<0.001.
NO is a reactive nitrogen species (RNS) and an important gas signal molecule. Macrophages could convert arginine into NO which participated in the body's inflammatory response. Therefore, determination of inhibitory activity of a drug on NO generation was one of the classic methods to evaluate drug's anti-inflammatory ability. RAW264.7 cells at exponential growth phase were inoculated into a 96-well plate at 1×10^4 cells/200 μL. well of medium. After adherence, the medium was discarded, and the cells were subjected to drug treatments. Normal group (serum-free medium), LPS model group (serum-free medium containing 1 μg/mL LPS), LPS+drug group (serum-free medium containing 1 μg/mL LPS, 10 μM gemfibrozil or the compound of the present application) were established, and 3 repeated wells were set for each group. After 24 hours incubation in incubator, cell supernatant of each well was collected and assay was performed according to the instructions of NO determination kit (Nanjing Jiancheng). The absorbance value of each well at wavelength of 540 nm was read and NO content was calculated.

phosphorylated GSK3β = assay: Phosphorylated GSK3β level by Western blotting in HepG2; type: cell-based, human; conditions: 1 μM, 24 hours, HepG2, Western blotting (FIG. 6B)
From the text: as §1, §2

NF-κB = NF-κB luciferase reporter gene transcriptional activity in SW480 cells; type: cell-based, human; conditions: 50 μM, 6 hours, SW480 stably transfected (FIG. 3)
Method: as §5

Row | SMILES | CPT1α protein level (CPT1α) | PPARγ mRNA expression (PPARγ) | phosphorylation level of IRS-1 (phosphorylated IRS-1) | PGC1α mRNA expression (PGC1α) | ACOX1 mRNA expression (ACOX1) | ARE reporter gene activity [1] | NO generation induced by LPS [2] | phosphorylation level of GSK3β (phosphorylated GSK3β) | activity of NF-κB reporter gene (NF-κB)
1 | Cc1cc(OCCCC(C)(C)C(=O)O)c(CO)cc1Br [BJMU-502, 5-(4-bromo-2-(hydroxymethyl)-5-methylphenoxy)-2,2-dimethylpentanoic acid] | significantly increased CPT1α protein level | significantly induced PPARγ mRNA expression | significantly increased the phosphorylation level of IRS-1 | significantly induced PGC1α mRNA expression | significantly induced ACOX1 mRNA expression | could significantly activate the ARE reporter gene activity | could inhibit NO generation |  | 
2 | Cc1cc(Br)c(C)c(Br)c1OCCCC(C)(C)C(=O)O [BJMU-109, 5-(2,4-dibromo-3,6-dimethylphenoxy)-2,2-dimethylpentanoic acid] |  |  | significantly increased the phosphorylation level of IRS-1 |  | significantly induced ACOX1 mRNA expression |  | could inhibit NO generation | significantly increased the phosphorylation level of GSK3β | 
3 | Cc1ccc(C)c(OCCCC(C)(C)C(=O)O)c1Br [BJMU-404, 5-(2-bromo-3,6-dimethylphenoxy)-2,2-dimethylpentanoic acid] | significantly increased CPT1α protein level |  | significantly increased the phosphorylation level of IRS-1 |  | significantly induced ACOX1 mRNA expression | could significantly activate the ARE reporter gene activity |  | significantly increased the phosphorylation level of GSK3β | could significantly inhibit the activity of NF-κB reporter gene
4 | Cc1cc(Br)c(C)c(C)c1OCCCC(C)(C)C(=O)O [BJMU-409, 5-(4-bromo-2,3,6-trimethylphenoxy)-2,2-dimethylpentanoic acid] | significantly increased CPT1α protein level |  | significantly increased the phosphorylation level of IRS-1 | significantly induced PGC1α mRNA expression | significantly induced ACOX1 mRNA expression | could significantly activate the ARE reporter gene activity |  | significantly increased the phosphorylation level of GSK3β | 
5 | Cc1cc(F)c(C)c(OCCCC(C)(C)C(=O)O)c1 [BJMU-213, 5-(3-fluoro-2,5-dimethylphenoxy)-2,2-dimethylpentanoic acid] | significantly increased CPT1α protein level |  | significantly increased the phosphorylation level of IRS-1 |  |  |  |  | significantly increased the phosphorylation level of GSK3β | 

From patent US12365643B2, “Phenoxy carboxylic acid compounds and medical uses thereof” (QINGDAO RISING BIOTECHNOLOGY CO., LTD, priority 2018, dated 2025)
